Test results: US20080234333A1, “Novel Hydroxamic Acid Derivative as Peptide Deformylase Inhibitor and Manufacturing Method Thereof” (priority 2005, published 2008)
Converted amounts (≈) assume the structure as drawn. Where two headings read alike, the source gives them in different places.

Legend:
[1] = test system: Methicillin-resistant Staphylococcus aureus; test: MIC, microdilution method in 96-well plates; format: cell-based; conditions: read-out: MIC Methicillin-resistant Staphylococcus aureus
Protocol: (§1) Minimum inhibitory concentrations (MICs) were determined using the microdilution method in 96-well format plates. Each of the compounds of Examples was dissolved in dimethyl sulfoxide to a concentration of 2 mg/mL and stored at 4° C. until used. They were diluted in Mueller-Hinton Broth (MHB) and used for MIC determination. The range of concentrations tested was […] final concentration using a two-fold dilution system. Plates were incubated at 37° C. and MIC were recorded after 24 hours of incubation for bacteria.
(§2) Linezolid and vancomycin were used as standard antibiotics, respectively.

Streptococcus pyogenes = test: MIC, microdilution method in 96-well plates; format: cell-based; conditions: read-out: MIC Streptococcus pyogenes
Protocol: as §1, §2

[2] = test system: Vancomycin-resistant Enterococcus faecalis; test: MIC, microdilution method in 96-well plates; format: cell-based; conditions: read-out: MIC Vancomycin-resistant Enterococcus faecalis
Protocol: as §1, §2

Streptococcus pneumoniae = test: MIC, microdilution method in 96-well plates; format: cell-based; conditions: read-out: MIC Streptococcus pneumoniae
Protocol: as §1, §2

Streptococcus agalactiae = test: MIC, microdilution method in 96-well plates; format: cell-based; conditions: read-out: MIC Streptococcus agalactiae
Protocol: as §1, §2

[3] = Acute toxicity study in mice; conditions: male, mouse, in vivo, 4000 mg/kg; ICR mice (♂, 4 weeks), oral 4,000 mg/kg dose, observed for 14 days
Protocol: The acute toxicity of the compounds of Example 7, 13, 18 and 47 were tested using several groups of ICR mice each of 6 mice.

[4] = Mueller-Hinton Broth, 37° C., 24 hours of incubation

Row | MIC [1, 4] [µg/mL] | MIC (Streptococcus pyogenes; [4]) [µg/mL] | MIC [2, 4] [µg/mL] | MIC (Streptococcus pneumoniae; [4]) [µg/mL] | MIC (Streptococcus agalactiae; [4]) [µg/mL] | SMILES | LD50 at 14 days [3] [mg/kg] | MIC ([1]; 24 h) [µg/mL] | MIC (Streptococcus pyogenes; 24 h) [µg/mL] | MIC ([2]; 24 h) [µg/mL] | MIC (Streptococcus pneumoniae; 24 h) [µg/mL] | MIC (Streptococcus agalactiae; 24 h) [µg/mL]
1 | 50 (≈ 94.6 µM) | 0.8 (≈ 1.51 µM) | 50 (≈ 94.6 µM) | 50 (≈ 94.6 µM) | 0.2 (≈ 0.378 µM) | CC(C)(C)[C@H](NC(=O)[C@@H](CC(=O)NO)CC1CCCC1)C(=O)N1CCC(NC(=O)Cc2ccccc2)CC1 [Example 10, (R)-2-Cyclopentylmethyl-N^1-[(S)-2,2-dimethyl-1-(4-phenylacetylamino-piperidine-1-carbonyl)-propyl]-N^4-hydroxy-succinamide] | – | – | – | – | – | –
2 | 12.5 (≈ 22.9 µM) | 0.2 (≈ 0.367 µM) | 6.3 (≈ 11.6 µM) | 3.1 (≈ 5.69 µM) | 0.2 (≈ 0.367 µM) | COc1ccc(C(=O)NC2CCN(C(=O)[C@@H](NC(=O)[C@H](CC3CCCC3)CN(O)C=O)C(C)(C)C)CC2)cc1 [Example 39, N-(1-{(S)-2-[(R)-2-Cyclopentylmethyl-3-(formyl-hydroxy-amino)-propionylamino]-3,3-dimethyl-butyryl}-piperidin-4-yl)-4-methoxy-benzamide] | – | – | – | – | – | –
3 | 1.6 (≈ 4.74 µM) | 0.8 (≈ 2.37 µM) | 0.8 (≈ 2.37 µM) | 0.8 (≈ 2.37 µM) | 1.6 (≈ 4.74 µM) | CC(=O)NC[C@H]1CN(c2ccc(N3CCOCC3)c(F)c2)C(=O)O1 [Linezolid, reference compound] | – | – | – | – | – | –
4 | 3.1 (≈ 5.45 µM) | 0.2 (≈ 0.352 µM) | 3.1 (≈ 5.45 µM) | 1.6 (≈ 2.81 µM) | 0.2 (≈ 0.352 µM) | CC(C)(C)[C@H](NC(=O)[C@H](CC1CCCC1)CN(O)C=O)C(=O)N1CCC(NC(=O)c2cc(F)c(F)cc2F)CC1 [Example 44, N-(1-{(S)-2-[(R)-2-Cyclopentylmethyl-3-(formyl-hydroxy-amino)-propionylamino]-3,3-dimethyl-butyryl}-piperidin-4-yl)-2,4,5-trifluoro-benzamide] | – | – | – | – | – | –
5 | 12.5 (≈ 24.3 µM) | 1.6 (≈ 3.11 µM) | 25 (≈ 48.6 µM) | 6.3 (≈ 12.2 µM) | 1.6 (≈ 3.11 µM) | CC(C)(C)[C@H](NC(=O)[C@@H](CC(=O)NO)CC1CCCC1)C(=O)N1CCC(NC(=O)c2ccccc2)CC1 [Example 8, (R)-N^1-[(S)-1-(4-Benzoylamino-piperidine-1-carbonyl)-2,2-dimethyl-propyl]-2-cyclopentylmethyl-N^4-hydroxy-succinamide] | – | – | – | – | – | –
6 | 6.3 (≈ 11.9 µM) | 3.1 (≈ 5.86 µM) | 3.1 (≈ 5.86 µM) | 1.6 (≈ 3.03 µM) | 0.1 (≈ 0.189 µM) | Cc1ccc(C(=O)NC2CCN(C(=O)[C@@H](NC(=O)[C@H](CC3CCCC3)CN(O)C=O)C(C)(C)C)CC2)cc1 [Example 38, N-(1-[(S)-2-[(R)-2-Cyclopentylmethyl-3-(formyl-hydroxy-amino)-propionylamino]-3,3-dimethyl-butyryl}-piperidin-4-yl)-4-methyl-benzamide] | – | – | – | – | – | –
7 | 3.1 (≈ 5.74 µM) | 0.1 (≈ 0.185 µM) | 3.1 (≈ 5.74 µM) | 1.6 (≈ 2.96 µM) | 0.1 (≈ 0.185 µM) | CC(C)(C)[C@H](NC(=O)[C@H](CC1CCCC1)CN(O)C=O)C(=O)N1CCC(NC(=O)c2ccc(C#N)cc2)CC1 [Example 29, 4-Cyano-N-(1-{(S)-2-[(R)-2-cyclopentylmethyl-3-(formyl-hydroxy-amino)-propionylamino]-3,3-dimethyl-butyryl}-piperidin-4-yl)benzamide] | – | – | – | – | – | –
8 | 3.1 (≈ 5.32 µM) | 3.1 (≈ 5.32 µM) | 6.3 (≈ 10.8 µM) | 1.6 (≈ 2.75 µM) | 0.1 (≈ 0.172 µM) | CC(C)(C)[C@H](NC(=O)[C@H](CC1CCCC1)CN(O)C=O)C(=O)N1CCC(NC(=O)c2ccc(C(F)(F)F)cc2)CC1 [Example 28, N-(1-{(S)-2-[(R)-2-Cyclopentylmethyl-3-(formyl-hydroxy-amino)-propionylamino]-3,3-dimethyl-4-butyryl}-piperidin-4-yl)-4-trifluoromethyl-benzamide] | – | – | – | – | – | –
9 | 6.3 (≈ 10.2 µM) | 0.4 (≈ 0.646 µM) | 3.1 (≈ 5.01 µM) | 1.6 (≈ 2.59 µM) | 0.4 (≈ 0.646 µM) | CC(C)(C)[C@H](NC(=O)[C@H](CC1CCCC1)CN(O)C=O)C(=O)N1CCC(NS(=O)(=O)c2ccc(C(F)(F)F)cc2)CC1 [Example 50, (R)-2-Cyclopentylmethyl-N-{(S)-2,2-dimethyl-1-[4-(4-trifluoromethyl-benzenesulfonylamino)-piperidine-1-carbonyl]-propyl}-3-(formyl-hydroxy-amino)-propionamide] | – | – | – | – | – | –
10 | – | – | – | – | – | CC(C)C[C@H](CC(=O)NO)C(=O)N[C@H](C(=O)N1CCC(NC(=O)Cc2ccccc2)CC1)C(C)(C)C [Example 7, (R)-N^1-[(S)-2,2-Dimethyl-1-(4-phenylacetylamino-piperidine-1-carbonyl)-propyl]-N^4-hydroxy-2-isobutyl-succinamide] | > 4000 | – | – | – | – | –
11 | 6.3 (≈ 11.8 µM) | 0.2 (≈ 0.375 µM) | 6.3 (≈ 11.8 µM) | 1.6 (≈ 3 µM) | 0.2 (≈ 0.375 µM) | CC(C)(C)[C@H](NC(=O)[C@H](CC1CCCC1)CN(O)C=O)C(=O)N1CCC(NC(=O)c2ccc(F)cc2)CC1 [Example 30, N-(1-{(S)-2-[(R)-2-Cyclopentylmethyl-3-(formyl-hydroxy-amino)-propionylamino]-3,3-dimethyl-butyryl}-piperidin-4-yl)-4-fluoro-benzamide] | – | – | – | – | – | –
12 | – | – | – | – | – | Cc1ccc(NC(=O)NC2CCN(C(=O)[C@@H](NC(=O)[C@H](CC3CCCC3)CN(O)C=O)C(C)(C)C)CC2)cc1 [Example 47, (R)-2-Cyclopentylmethyl-N-{(S)-2,2-dimethyl-1-[4-(3-p-tolyl-ureido)-piperidine-1-carbonyl]-propyl}-3-(formyl-hydroxy-amino)-propionamide] | > 4000 | – | – | – | – | –
13 | 25 (≈ 47.3 µM) | 0.4 (≈ 0.757 µM) | 12.5 (≈ 23.6 µM) | 0.8 (≈ 1.51 µM) | 0.4 (≈ 0.757 µM) | Cc1ccc(C(=O)NC2CCN(C(=O)[C@@H](NC(=O)[C@@H](CC(=O)NO)CC3CCCC3)C(C)(C)C)CC2)cc1 [Example 20, (R)-2-Cyclopentylmethyl-N^1-{(S)-2,2-dimethyl-1-[4-(4-methyl-benzoylamino)-piperidine-1-carbonyl]-propyl}-N^4-hydroxy-succinamide] | – | – | – | – | – | –
14 | 12.5 (≈ 24.3 µM) | 0.4 (≈ 0.777 µM) | 6.3 (≈ 12.2 µM) | 6.3 (≈ 12.2 µM) | 0.1 (≈ 0.194 µM) | CC(C)(C)[C@H](NC(=O)[C@H](CC1CCCC1)CN(O)C=O)C(=O)N1CCC(NC(=O)c2ccccc2)CC1 [Example 25, N-(1-{(S)-2-[(R)-2-Cyclopentylmethyl-3-(formyl-hydroxy-amino)-propionylamino]-3,3dimethyl-butyryl}-piperidin-4-yl)-benzamide] | – | – | – | – | – | –
15 | – | – | – | – | – | CN[C@H](CC(C)C)C(=O)N[C@H]1C(=O)N[C@@H](CC(N)=O)C(=O)N[C@H]2C(=O)N[C@H]3C(=O)N[C@H](C(=O)N[C@H](C(=O)O)c4cc(O)cc(O)c4-c4cc3ccc4O)[C@H](O)c3ccc(c(Cl)c3)Oc3cc2cc(c3O[C@@H]2O[C@H](CO)[C@@H](O)[C@H](O)[C@H]2O[C@H]2C[C@](C)(N)[C@H](O)[C@H](C)O2)Oc2ccc(cc2Cl)[C@H]1O [Vancomycin, reference compound] | – | 3.1 (≈ 2.14 µM) | 0.8 (≈ 0.552 µM) | > 100 | 0.8 (≈ 0.552 µM) | 1.6 (≈ 1.1 µM)
16 | 6.3 (≈ 11.8 µM) | 0.2 (≈ 0.375 µM) | 6.3 (≈ 11.8 µM) | 6.3 (≈ 11.8 µM) | 0.2 (≈ 0.375 µM) | CC(C)(C)[C@H](NC(=O)[C@@H](CC(=O)NO)CC1CCCC1)C(=O)N1CCC(NC(=O)c2ccc(F)cc2)CC1 [Example 15, (R)-2-Cyclopentylmethyl-N^1-{(S)-1-[4-(4-fluoro-benzoylamino)-piperidine-1-carbonyl]-2,2-dimethyl-propyl}-N^4-hydroxy-succinamide] | – | – | – | – | – | –
17 | – | – | – | – | – | CCCC[C@H](CC(=O)NO)C(=O)N[C@H](C(=O)N1CCC(NC(=O)c2ccc(C)cc2)CC1)C(C)(C)C [Example 18, (R)-2-Butyl-N^1-{(S)-2,2-dimethyl-1-[4-(4-methyl-benzoylamino)-piperidine-1-carbonyl]-propyl}-N^4-hydroxy-succinamide] | > 4000 | – | – | – | – | –
18 | 6.3 (≈ 12 µM) | 0.4 (≈ 0.761 µM) | 3.1 (≈ 5.9 µM) | 1.6 (≈ 3.04 µM) | 0.4 (≈ 0.761 µM) | CC(C)[C@H](NC(=O)[C@H](CC1CCCC1)CN(O)C=O)C(=O)N1CCC(NC(=O)c2ccc(C#N)cc2)CC1 [Example 41, 4-Cyano-N-(1-{(S)-2-[(R)-2-cyclopentylmethyl-3-(formyl-hydroxy-amino)-propionylamino]-3-methyl-butyryl}-piperidin-4-yl)benzamide] | – | – | – | – | – | –
19 | 6.3 (≈ 10.5 µM) | 0.2 (≈ 0.335 µM) | 3.1 (≈ 5.19 µM) | 1.6 (≈ 2.68 µM) | 0.2 (≈ 0.335 µM) | CC(C)(C)[C@H](NC(=O)[C@H](CC1CCCC1)CN(O)C=O)C(=O)N1CCC(NC(=O)Nc2ccc(C(F)(F)F)cc2)CC1 [Example 48, (R)-2-Cyclopentylmethyl-N-((S)-2,2-dimethyl-1-{4-[3-(4-trifluoromethyl-phenyl)-ureido)-piperidine-1-carbonyl}-propyl)-3-(formyl-hydroxy-amino)-propionamide] | – | – | – | – | – | –

Row | SMILES | MIC [1, 4] [µg/mL] | MIC (Streptococcus pyogenes; [4]) [µg/mL] | MIC [2, 4] [µg/mL] | MIC (Streptococcus pneumoniae; [4]) [µg/mL] | MIC (Streptococcus agalactiae; [4]) [µg/mL] | LD50 at 14 days [3] [mg/kg] | MIC ([1]; 24 h) [µg/mL] | MIC (Streptococcus pyogenes; 24 h) [µg/mL] | MIC ([2]; 24 h) [µg/mL] | MIC (Streptococcus pneumoniae; 24 h) [µg/mL] | MIC (Streptococcus agalactiae; 24 h) [µg/mL]
20 | CC(C)(C)[C@H](NC(=O)[C@@H](CC(=O)NO)CC1CCCC1)C(=O)N1CCC(NC(=O)c2ccc(C(F)(F)F)cc2)CC1 [Example 13, (R)-2-Cyclopentylmethyl-N^1-{(S)-2,2-dimethyl-1-[4-(4-trifluoromethyl-benzoylamino)-piperidine-1-carbonyl]-propyl}-N^4-hydroxy-succinamide] | 12.5 (≈ 21.5 µM) | 0.4 (≈ 0.687 µM) | 6.3 (≈ 10.8 µM) | 3.1 (≈ 5.32 µM) | 0.2 (≈ 0.343 µM) | > 4000 | – | – | – | – | –
